Assay results as given in article PMC4459817, “Vasculotide reduces endothelial permeability and tumor cell extravasation in the absence of binding to or agonistic activation of Tie2” (EMBO Molecular Medicine, 2015).

B1: recombinant human Ang1 (rhAng1) (ligand, UniProt Q15389 16-498, looked up)
chain: HIGCSNQRRSPENSGRRYNRIQHGQCAYTFILPEHDGNCRESTTDQYNTNALQRDAPHVEPDFSSQKLQHLEHVMENYTQWLQKLENYIVENMKSEMAQIQQNAVQNHTATMLEIGTSLLSQTAEQTRKLTDVETQVLNQTSRLEIQLLENSLSTYKLEKQLLQQTNEILKIHEKNSLLEHKILEMEGKHKEELDTLKEEKENLQGLVTRQTYIIQELEKQLNRATTNNSVLQKQQLELMDTVHNLVNLCTKEGVLLKGGKREEEKPFRDCADVYQAGFNKSGIYTIYINNMPEPKKVFCNMDVNGGGWTVIQHREDGSLDFQRGWKEYKMGFGNPSGEYWLGNEFIFAITSQRQYMLRIELMDWEGNRAYSQYDRFHIGNEKQNYRLYLKGHTGTAGKQSSLILHGADFSTKDADNDNCMCKCALMLTGGWWFDACGPSNLNGMFYTAGQNHGKLNGIKWHYFKGPSYSLRSTTMMIRPLDF
notes: angiopoietin-1, human, recombinant; also called angiopoietin-1; source: bought: R&D Systems (named for the Boyden chamber experiments)

Test system: human microvascular ECs of lung blood vessel origin (HMVEC-LBl)
Experiment: modified Boyden chamber, thrombin-stimulated FITC-dextran permeability, HMVEC-LBl
Type: cell-based
Conditions: VT 10–20 ng/mL, Ang1 200–400 ng/mL, 30 min pretreatment, FITC fluorescence ex/em 490/520 nm, n = 3–5 inserts, unpaired t-test, Fig1A
Description: ECs were first treated with Vasculotide (VT), PBS (vehicle/negative control), Ang1 (positive control), PEG-Cys (polyethylene glycol backbone), T7c (non-PEGylated CHHHRHSF peptides), or VT in the presence of 100-fold molar excess of T7c. The concentrations used, 10–20 ng/mL VT and 200–400 ng/mL Ang1, are estimated molar equivalents (0.71–1.43 nM). Thirty minutes later, ECs were stimulated with thrombin, 0.1% BSA (vehicle/negative control), or EDTA (positive control). Another 30mins later, the amount of FITC-dextran diffusion into the lower chambers (A, D) provides a measure of endothelial permeability. CMTPX-labeled tumor cells (TCs) were then dispensed into inserts, and the amount of TC fluorescence emitting from the underside of insert membranes after 20 h (B–C) or 28 h (E) reflects the efficiency of trans-endothelial TC migration. […] Three experiments (twice with HMVEC-LBl and once with HMVEC-DBl) were run with n = 3–5 inserts (independent biological replicates) per group and analyzed by two-sampled unpaired t-tests. […]
Endothelial cells (ECs) were grown on cell culture inserts with uncoated 8-μm-pore PET filter membranes to 100% confluency. […] After 30 min of thrombin stimulation or 4–6 h of TC-CM stimulation, FITC fluorescence (ex/em = 490/520 nm) was measured from a 50 μl sample of the lower chamber media. […]

| Molecule | transendothelial permeability of FITC-dextran |
| --- | --- |
| CHHHRHSF [Vasculotide, 4-armed maleimide-functionalized polyethylene glycol (PEG) backbone to link together four cysteine-capped T7 peptides, that is, CHHHRHSF] | counteract thrombin-stimulated increases in transendothelial permeability of FITC-dextran (P < 0.05 |
| B1 | counteract thrombin induction of trans-endothelium macromolecular permeability |
